The source of these data is US20260201008A1, “SECRETIN-DERIVED GLP1R SELECTIVE AGONISTS” (GUBRA A/S, priority 2023, published 2026).

Numbered stars: 1 amine (or outer) side, 2 acyl side, 3 side chain; on linkers, the order of the positions; unused ones are H or OH. Square brackets hold non-standard residues; d marks the D form. Side chains are listed from the residue outwards. Peptide text beside a SMILES is read from it. * marks the point of attachment. C20 diacid = O=C(O)CCCCCCCCCCCCCCCCCCC(=O)*; γGlu = O=C(O)[C@H](CCC(=O)[*:2])N[*:1]; AEEA = NCCOCCOCC(=O)O; Aib = CC(C)(N)C(=O)O

Data set [1] deals with SCTR (Homo sapiens, UniProt P47872). Briefly: hSCTR potency, cAMP accumulation in CHO-K1 cells stably overexpressing hSCTR. Set-up: alternatively Euroscreen ES-712-AF; FAST-0161L; host or cells: CHO-K1. The following applies: cAMP accumulation, CHO-K1 cells overexpressing hSCTR; read-out: pEC50 hSCTR (converted). The data set is classed as cell-based. The essentials:
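Thawed CHO-K1 cells carrying stable hSCTR are plated into casein/IBMX buffer (0.05%, 0.5 mM), dosed immediately for 30 min at room temperature, then cAMP is detected by TR-FRET. Purified peptides run as 11 three-fold dilutions in duplicate, and curves are fitted with variable slope.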
(In general: Changes in cAMP serve as a functional read-out for many G protein-coupled receptors.)

The nature of data set [2]: Turbidity of crude library peptides (absorbance at 600 nm). Type of data set: physicochemical. Conditions: Physical stability of peptides. The essentials:
(§1)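 Turbidity is the absorbance at 600 nm, taken before heating. Fibril signal is the mean ThT emission at 480 nm (450 nm excitation), read every 10 min over 72 h at 40° C with 700 rpm shaking between reads. Peptides at 267 μM, pH 4.0 acetate or pH 7.0 phosphate buffer (50 mM), 4 μM ThT final.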

In data set [3] the target is GLP1R (Homo sapiens, UniProt P43220). In words: hGLP1R potency, cAMP accumulation in CHO-K1 cells stably overexpressing hGLP1R. The following applies: for Selectivity: SCTR EC50/GLP1R EC50 ratio; for EC50: cAMP accumulation, CHO-K1 cells overexpressing hGLP1R, read-out: pEC50 hGLPR1 (converted). The data set is classed as cell-based. Set-up: host or cells: CHO-K1. The essentials:
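2000 cells/well, DPBS + 0.05% casein + 0.5 mM IBMX; 30 min RT stimulation; HTRF cAMP detection after 1 h. Purified: 3-fold ×11, n=2; crude: 10-fold ×5, n=1. EC50 by variable-slope fit.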

The nature of data set [4]: Fibril formation of crude library peptides (Thioflavin T). Type of data set: physicochemical. The following applies: Physical stability of peptides. Also on record: key: average ThT fluorescence emission at 480 nm (ex 450 nm), raw units. An outline of the steps: as §1

Sequence of SCTR (P47872 23-440): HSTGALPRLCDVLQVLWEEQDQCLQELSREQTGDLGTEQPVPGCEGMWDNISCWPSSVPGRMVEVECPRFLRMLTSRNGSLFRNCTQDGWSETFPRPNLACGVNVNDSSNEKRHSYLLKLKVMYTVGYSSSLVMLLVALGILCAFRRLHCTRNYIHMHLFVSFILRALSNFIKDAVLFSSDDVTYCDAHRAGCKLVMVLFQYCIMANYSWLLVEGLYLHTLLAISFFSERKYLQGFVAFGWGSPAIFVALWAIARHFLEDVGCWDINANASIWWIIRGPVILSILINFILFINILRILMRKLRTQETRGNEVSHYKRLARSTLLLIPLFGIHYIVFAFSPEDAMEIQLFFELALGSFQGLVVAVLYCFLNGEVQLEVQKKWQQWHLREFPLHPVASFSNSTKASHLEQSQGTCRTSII
Sequence of GLP1R (P43220 24-463): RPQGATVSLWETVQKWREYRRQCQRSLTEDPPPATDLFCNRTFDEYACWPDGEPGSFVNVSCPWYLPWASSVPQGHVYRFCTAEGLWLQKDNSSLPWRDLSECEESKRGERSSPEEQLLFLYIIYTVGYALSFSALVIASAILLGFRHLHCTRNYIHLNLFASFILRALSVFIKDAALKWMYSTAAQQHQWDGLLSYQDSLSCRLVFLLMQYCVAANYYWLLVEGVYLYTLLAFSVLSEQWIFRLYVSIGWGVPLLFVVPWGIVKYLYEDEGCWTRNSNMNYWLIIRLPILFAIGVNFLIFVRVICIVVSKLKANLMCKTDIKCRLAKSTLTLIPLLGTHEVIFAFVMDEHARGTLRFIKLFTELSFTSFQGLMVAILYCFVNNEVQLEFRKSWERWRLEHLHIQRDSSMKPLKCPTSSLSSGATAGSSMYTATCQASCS

For the compound `CC(C)C[C@H](NC(=O)[C@H](Cc1ccccc1)NC(=O)[C@H](CCCNC(=N)N)NC(=O)[C@H](CCC(N)=O)NC(=O)[C@H](CCC(=O)O)NC(=O)[C@H](C)NC(=O)[C@H](C)NC(=O)[C@H](Cc1ccccc1)NC(=O)[C@H](CCC(=O)O)NC(=O)[C@H](CCCCNC(=O)COCCOCCNC(=O)COCCOCCNC(=O)CC[C@H](NC(=O)CCCCCCCCCCCCCCCCCCC(=O)O)C(=O)O)NC(=O)[C@H](CC(C)C)NC(=O)[C@H](CCC(=O)O)NC(=O)[C@H](CO)NC(=O)[C@@H](NC(=O)[C@H](CC(=O)O)NC(=O)[C@H](CO)NC(=O)[C@@H](NC(=O)[C@H](Cc1ccccc1)NC(=O)[C@@H](NC(=O)CNC(=O)[C@H](CCC(=O)O)NC(=O)C(C)(C)NC(=O)[C@@H](N)Cc1c[nH]cn1)[C@@H](C)O)[C@@H](C)O)C(C)C)C(=O)N[C@@H](CCC(=O)O)C(=O)N[C@@H](Cc1c[nH]cn1)C(=O)N[C@@H](CC(C)C)C(=O)N[C@H](C(N)=O)C(C)C` [compound 31] (H-H[Aib]EGTFTSDVSELK([AEEA-AEEA-γGlu-C20 diacid])EFAAEQRFLEHLV-NH2), the results for the EC50 in data set [1] and in data set [3] were 6310 nM and 0.0398 nM, respectively. Besides, in data set [2], the “Turbidity (pH 7)” value is recorded as 0.08. Moreover, the Selectivity in data set [3] stood at 144477. The Fibril formation in data set [4] is on record as 10417.

As for `CC(C)C[C@H](NC(=O)[C@H](Cc1ccccc1)NC(=O)[C@H](CCCNC(=N)N)NC(=O)[C@H](CCC(N)=O)NC(=O)C(C)(C)NC(=O)[C@H](C)NC(=O)[C@H](C)NC(=O)C(C)(C)NC(=O)[C@H](CCC(=O)O)NC(=O)[C@H](CCCCNC(=O)COCCOCCNC(=O)COCCOCCNC(=O)CC[C@H](NC(=O)CCCCCCCCCCCCCCCCCCC(=O)O)C(=O)O)NC(=O)[C@H](CC(C)C)NC(=O)[C@@H](NC(=O)[C@H](CO)NC(=O)[C@@H](NC(=O)[C@H](CC(=O)O)NC(=O)[C@H](CO)NC(=O)[C@@H](NC(=O)[C@H](Cc1ccccc1)NC(=O)[C@@H](NC(=O)CNC(=O)[C@H](CCC(=O)O)NC(=O)C(C)(C)NC(=O)[C@@H](N)Cc1c[nH]cn1)[C@@H](C)O)[C@@H](C)O)C(C)C)[C@@H](C)O)C(=O)N[C@@H](CCC(=O)O)C(=O)N[C@@H](Cc1c[nH]cn1)C(=O)N[C@@H](CC(C)C)C(=O)N[C@H](C(N)=O)C(C)C` [compound 32] (H-H[Aib]EGTFTSDVSTLK([AEEA-AEEA-γGlu-C20 diacid])E[Aib]AA[Aib]QRFLEHLV-NH2), the EC50 in data set [1] was 631 nM; in data set [3], 0.0251 nM. In addition, the “Turbidity (pH 7)” value in data set [2] was found to be 0.08. The Selectivity in data set [3] turned out to be 23147. For the same compound, the Fibril formation in data set [4] worked out at 16551.

For `CC(C)C[C@H](NC(=O)[C@H](CCC(=O)O)NC(=O)[C@H](CCCCNC(=O)COCCOCCNC(=O)COCCOCCNC(=O)CC[C@H](NC(=O)CCCCCCCCCCCCCCCCCCC(=O)O)C(=O)O)NC(=O)[C@H](CC(C)C)NC(=O)[C@@H](NC(=O)[C@H](CO)NC(=O)[C@@H](NC(=O)[C@H](CC(=O)O)NC(=O)[C@H](CO)NC(=O)[C@@H](NC(=O)[C@H](Cc1ccccc1)NC(=O)[C@@H](NC(=O)CNC(=O)[C@H](CCC(=O)O)NC(=O)C(C)(C)NC(=O)[C@@H](N)Cc1c[nH]cn1)[C@@H](C)O)[C@@H](C)O)C(C)C)C(C)C)C(=O)N[C@@H](C)C(=O)N[C@@H](C)C(=O)N[C@@H](CCC(N)=O)C(=O)N[C@@H](CCC(N)=O)C(=O)N[C@@H](CCCNC(=N)N)C(=O)N[C@@H](Cc1ccccc1)C(=O)N[C@@H](CC(C)C)C(=O)N[C@@H](CCC(=O)O)C(=O)N[C@@H](Cc1c[nH]cn1)C(=O)N[C@@H](CC(C)C)C(=O)N[C@H](C(N)=O)C(C)C` [compound 33] (H-H[Aib]EGTFTSDVSVLK([AEEA-AEEA-γGlu-C20 diacid])ELAAQQRFLEHLV-NH2), the EC50 in data set [1] was 316 nM. The “Turbidity (pH 7)” value in data set [2] is reported as 0.08. Besides, in data set [3], the Selectivity was 5737 and the EC50 was 0.0631 nM. In data set [4], this compound registered a Fibril formation of 45087.

Consider `CC(C)C[C@H](NC(=O)[C@H](Cc1ccccc1)NC(=O)[C@H](CCCNC(=N)N)NC(=O)[C@H](CCC(N)=O)NC(=O)[C@H](CCC(=O)O)NC(=O)[C@H](C)NC(=O)[C@H](C)NC(=O)[C@@H](NC(=O)[C@H](CCC(=O)O)NC(=O)[C@H](CCCCNC(=O)COCCOCCNC(=O)COCCOCCNC(=O)CC[C@H](NC(=O)CCCCCCCCCCCCCCCCCCC(=O)O)C(=O)O)NC(=O)[C@H](CC(C)C)NC(=O)[C@H](CCCNC(=N)N)NC(=O)[C@H](CO)NC(=O)[C@@H](NC(=O)[C@H](CC(=O)O)NC(=O)[C@H](CO)NC(=O)[C@@H](NC(=O)[C@H](Cc1ccccc1)NC(=O)[C@@H](NC(=O)CNC(=O)[C@H](CCC(=O)O)NC(=O)C(C)(C)NC(=O)[C@@H](N)Cc1c[nH]cn1)[C@@H](C)O)[C@@H](C)O)C(C)C)[C@@H](C)O)C(=O)N[C@@H](CCC(=O)O)C(=O)N[C@@H](Cc1c[nH]cn1)C(=O)N[C@@H](CC(C)C)C(=O)N[C@H](C(N)=O)C(C)C` [compound 34] (H-H[Aib]EGTFTSDVSRLK([AEEA-AEEA-γGlu-C20 diacid])ETAAEQRFLEHLV-NH2), for which the EC50 in data set [1] is 398 nM. In addition, the “Turbidity (pH 7)” value in data set [2] came to 0.08. Besides, in data set [3], the Selectivity turned out to be 18582 and the EC50 was 0.0251 nM. Besides, the Fibril formation in data set [4] amounted to 11365.

On to `CC(C)C[C@H](NC(=O)[C@H](Cc1ccccc1)NC(=O)[C@H](CCCNC(=N)N)NC(=O)[C@H](CCC(N)=O)NC(=O)C(C)(C)NC(=O)[C@H](C)NC(=O)[C@H](C)NC(=O)[C@H](CCC(=O)O)NC(=O)[C@H](CCC(=O)O)NC(=O)[C@H](CCCCNC(=O)COCCOCCNC(=O)COCCOCCNC(=O)CC[C@H](NC(=O)CCCCCCCCCCCCCCCCCCC(=O)O)C(=O)O)NC(=O)[C@H](CC(C)C)NC(=O)[C@@H](NC(=O)[C@H](CO)NC(=O)[C@@H](NC(=O)[C@H](CC(=O)O)NC(=O)[C@H](CO)NC(=O)[C@@H](NC(=O)[C@H](Cc1ccccc1)NC(=O)[C@@H](NC(=O)CNC(=O)[C@H](CCC(=O)O)NC(=O)C(C)(C)NC(=O)[C@@H](N)Cc1c[nH]cn1)[C@@H](C)O)[C@@H](C)O)C(C)C)C(C)C)C(=O)N[C@@H](CCC(=O)O)C(=O)N[C@@H](Cc1c[nH]cn1)C(=O)N[C@@H](CC(C)C)C(=O)N[C@H](C(N)=O)C(C)C` [compound 35] (H-H[Aib]EGTFTSDVSVLK([AEEA-AEEA-γGlu-C20 diacid])EEAA[Aib]QRFLEHLV-NH2), for which, in data set [1], the EC50 is 794 nM. The “Turbidity (pH 7)” value in data set [2] is 0.08. Moreover, in data set [3], the Selectivity amounted to 43142 and the EC50 was 0.0158 nM. This compound displayed a Fibril formation in data set [4] of 8261.

In the case of `CC(C)C[C@H](NC(=O)[C@H](CCC(=O)O)NC(=O)[C@H](CCCCNC(=O)COCCOCCNC(=O)COCCOCCNC(=O)CC[C@H](NC(=O)CCCCCCCCCCCCCCCCCCC(=O)O)C(=O)O)NC(=O)[C@H](CC(C)C)NC(=O)[C@H](CCC(=O)O)NC(=O)[C@H](CO)NC(=O)[C@@H](NC(=O)[C@H](CC(=O)O)NC(=O)[C@H](CO)NC(=O)[C@@H](NC(=O)[C@H](Cc1ccccc1)NC(=O)[C@@H](NC(=O)CNC(=O)[C@H](CCC(=O)O)NC(=O)C(C)(C)NC(=O)[C@@H](N)Cc1c[nH]cn1)[C@@H](C)O)[C@@H](C)O)C(C)C)C(=O)N[C@@H](C)C(=O)N[C@@H](C)C(=O)N[C@@H](CCC(=O)O)C(=O)N[C@@H](CCC(N)=O)C(=O)N[C@@H](CCCNC(=N)N)C(=O)N[C@@H](Cc1ccccc1)C(=O)N[C@@H](CC(C)C)C(=O)N[C@@H](CCC(=O)O)C(=O)N[C@@H](Cc1c[nH]cn1)C(=O)N[C@@H](CC(C)C)C(=O)N[C@H](C(N)=O)C(C)C` [compound 36] (H-H[Aib]EGTFTSDVSELK([AEEA-AEEA-γGlu-C20 diacid])ELAAEQRFLEHLV-NH2), the EC50 in data set [1] was 316 nM; in data set [3] it was 0.0316 nM. Besides, in data set [2], the “Turbidity (pH 7)” value is on record as 0.09. Moreover, the Selectivity in data set [3] turned out to be 11143. Also, the Fibril formation in data set [4] is given as 9625.

`CC(C)C[C@H](NC(=O)[C@H](Cc1ccccc1)NC(=O)[C@H](CCCNC(=N)N)NC(=O)[C@H](CCC(N)=O)NC(=O)C(C)(C)NC(=O)[C@H](C)NC(=O)[C@H](C)NC(=O)[C@H](CCC(=O)O)NC(=O)[C@H](CCC(=O)O)NC(=O)[C@H](CCCCNC(=O)COCCOCCNC(=O)COCCOCCNC(=O)CC[C@H](NC(=O)CCCCCCCCCCCCCCCCCCC(=O)O)C(=O)O)NC(=O)[C@H](CC(C)C)NC(=O)[C@H](Cc1ccccc1)NC(=O)[C@H](CO)NC(=O)[C@@H](NC(=O)[C@H](CC(=O)O)NC(=O)[C@H](CO)NC(=O)[C@@H](NC(=O)[C@H](Cc1ccccc1)NC(=O)[C@@H](NC(=O)CNC(=O)[C@H](CCC(=O)O)NC(=O)C(C)(C)NC(=O)[C@@H](N)Cc1c[nH]cn1)[C@@H](C)O)[C@@H](C)O)C(C)C)C(=O)N[C@@H](CCC(=O)O)C(=O)N[C@@H](Cc1c[nH]cn1)C(=O)N[C@@H](CC(C)C)C(=O)N[C@H](C(N)=O)C(C)C` [compound 37] (H-H[Aib]EGTFTSDVSFLK([AEEA-AEEA-γGlu-C20 diacid])EEAA[Aib]QRFLEHLV-NH2): in data set [1], the EC50 is 2000 nM. The “Turbidity (pH 7)” value in data set [2] amounted to 0.08. In addition, in data set [3], the Selectivity is on record as 158052 and the EC50 is 0.0126 nM. Also, in data set [4], the Fibril formation came to 12367.
